Test results: publication doi:10.1101/2023.02.27.530254, “Large library docking for cannabinoid-1 receptor agonists with reduced side effects” (bioRxiv, 2024)

Legend:
hCB1 = hCB1 (Homo sapiens, UniProt P21554); assay: DiscoverX PathHunter β-arrestin-2 recruitment assay; format: cell-based
Procedure: PathHunter cell lines (CHO-K1 lineage expressing hCB1) were expanded from freezer stocks according to standard procedures. Cells were seeded in a total volume of 20 μL into white walled, 384-well microplates and incubated at 37°C for the appropriate time prior to testing. For agonist determination, cells were incubated with sample to induce response. Intermediate dilution of sample stocks was performed to generate 5X sample in assay buffer. 5 μL of 5X sample was added to cells and incubated at 37°C or room temperature for 90 to 180 minutes. Vehicle concentration was 1%. […] Microplates were read following signal generation with a PerkinElmer EnvisionTM instrument for chemiluminescent signal detection. Compound activity was analyzed using CBIS data analysis suite (ChemInnovation, CA).
The data were analyzed in GraphPad Prism 9.1 using “dose–response-stimulation log(agonist) versus response (four parameters)” and data were presented as EC50 or pEC50 ± CIs of one independent experiment in duplicate.

C56BL/6 mice = assay: Formalin test; format: in vivo, mouse; conditions: 0.2 mg/kg i.p., 60 min observation
Procedure: Thirty minutes after an i.p. injection of the compounds, mice received an intraplantar injection of a 20μl solution containing 2% formalin (Acros Organics) and we recorded the time mice spent licking/biting/guarding (nocifensive behaviors) the injected hindpaw over the next 60 min.

CB1R = molecular target: T1, CB1R (Homo sapiens, UniProt P21554, C107A/C139A/C149A/C238A/C355A/C382A/C386A/C415A/C431A/C449A/C98A/R336C); assay: Bimane fluorescence of TM6-labeled minimal cysteine CB1R; format: biochemical; conditions: 10 μM ligand; apo 459 nm
T1 construct: N-terminal FLAG tag and C-terminal histidine tag was added to human full-length CB1; FLAG (N); histidine tag (C); made in house; host or cells: Spodoptera frugiperda Sf9 (baculovirus)
Procedure: A minimal cysteine version of CB1R was generated[73] where all the cysteine residues (except C256 and C264) were mutated to alanine. […] Excess label was removed using size exclusion chromatography on a Superdex 200 10/300 Increase column in 20 mM HEPES pH 7.5, 100 mM NaCl and 0.01% MNG/0.001% CHS. Bimane-labeled CB1R at […] was incubated with ligands (10 μM) for one hour at room temperature. Fluorescence data was collected at room temperature in a 150 μL cuvette with a FluorEssence v3.8 software on a Fluorolog instrument (Horiba) in photon-counting mode. Bimane fluorescence was measured by excitation at 370 nm with excitation and emission bandwidth passes of 4 nm. The emission spectra were recorded from 410 to 510 nm with 1 nm increment and 0.1 s integration time.

Sequence of hCB1 (P21554 whole entry): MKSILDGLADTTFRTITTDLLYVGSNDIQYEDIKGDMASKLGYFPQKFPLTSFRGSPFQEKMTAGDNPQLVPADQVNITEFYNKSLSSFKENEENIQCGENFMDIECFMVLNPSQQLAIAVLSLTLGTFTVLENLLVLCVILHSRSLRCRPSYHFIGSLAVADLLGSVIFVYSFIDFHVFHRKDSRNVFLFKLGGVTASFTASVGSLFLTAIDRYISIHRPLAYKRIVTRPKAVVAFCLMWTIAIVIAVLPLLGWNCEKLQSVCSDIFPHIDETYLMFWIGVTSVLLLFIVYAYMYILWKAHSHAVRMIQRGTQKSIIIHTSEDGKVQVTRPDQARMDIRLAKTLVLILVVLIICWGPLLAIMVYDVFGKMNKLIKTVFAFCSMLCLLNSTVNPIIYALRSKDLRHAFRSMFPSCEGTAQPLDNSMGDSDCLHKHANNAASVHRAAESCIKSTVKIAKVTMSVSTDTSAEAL
T1 sequence (P21554 whole entry C98A/C107A/C139A/C149A/C238A/R336C/C355A/C382A/C386A/C415A/C431A/C449A): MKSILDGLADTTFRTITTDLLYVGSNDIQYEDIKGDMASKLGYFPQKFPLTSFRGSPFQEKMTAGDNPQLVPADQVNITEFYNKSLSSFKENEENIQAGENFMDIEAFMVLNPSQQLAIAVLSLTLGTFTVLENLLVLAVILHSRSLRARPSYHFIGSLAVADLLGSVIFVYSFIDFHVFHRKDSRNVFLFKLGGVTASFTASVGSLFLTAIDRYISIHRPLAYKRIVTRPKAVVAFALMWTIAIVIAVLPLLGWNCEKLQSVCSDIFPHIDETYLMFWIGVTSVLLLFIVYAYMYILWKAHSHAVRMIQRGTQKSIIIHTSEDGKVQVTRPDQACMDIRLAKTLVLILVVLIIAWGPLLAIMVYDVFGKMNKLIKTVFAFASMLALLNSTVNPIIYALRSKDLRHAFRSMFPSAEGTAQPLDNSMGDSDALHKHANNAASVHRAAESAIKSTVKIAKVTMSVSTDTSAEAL

Compound | EC50 (hCB1; hCB1 DiscoverX ß-arrestin recruitment EC50 [95% CI]) | EC50 (hCB1; hCB1 DiscoverX ß-arrestin recruitment pEC50 [95% CI]) | Emax (hCB1; read-out: hCB1 DiscoverX ß-arrestin recruitment Emax [95% CI]) | duration of phase 1 and phase 2 nocifensive behaviors (C56BL/6 mice) | bimane spectrum λmax (CB1R)
COC(=O)C(C)(NC(=O)c1cc(C)n(-c2cccc(C(F)(F)F)c2)n1)c1cccs1 (centres unmarked) [‘4042] | 2.3 nM | 2 nM | 71% | profoundly decreased | 
COC(=O)[C@@](C)(NC(=O)c1cc(C)n(-c2cccc(C(F)(F)F)c2)n1)c1cccs1 [‘1350] |  |  |  |  | 463 nm
